How the values were obtained:
Assay type in all cases: in vivo
[1] = test system: barnyardgrass (Echinochloa crus-galli); assay: Test A postemergence, barnyardgrass; conditions: approximately 10 d
Text: (§1) Seeds of plant species selected from barnyardgrass (Echinochloa crus-galli), kochia (Kochia scoparia), ragweed (common ragweed, Ambrosia elatior), ryegrass, Italian (Italian ryegrass, Lolium multiflorum), foxtail, green (green foxtail, Setaria viridis), and pigweed (Amaranthus retroflexus) were planted into a blend of loam soil and sand and treated preemergence with a directed soil spray using test chemicals formulated in a non-phytotoxic solvent mixture which included a surfactant. At the same time, plants selected from these weed species and also wheat (Triticum aestivum), corn (Zea mays), blackgrass (Alopecurus myosuroides), and galium (catchweed bedstraw, Galium aparine) were planted in pots containing the same blend of loam soil and sand and treated with postemergence applications of test chemicals formulated in the same manner. Plants ranged in height from 2 to 10 cm and were in the one- to two-leaf stage for the postemergence treatment. Treated plants and untreated controls were maintained in a greenhouse for approximately 10 d, after which time all treated plants were compared to untreated controls and visually evaluated for injury. Plant response ratings, summarized in Table A, are based on a 0 to 100 scale where 0 is no effect and 100 is complete control. A dash (-) response means no test result.

[2] = test system: blackgrass (Alopecurus myosuroides); assay: Test A postemergence, blackgrass; conditions: approximately 10 d
Text: as §1

[3] = test system: corn (Zea mays); assay: Test A postemergence, corn; conditions: approximately 10 d
Text: as §1

[4] = test system: foxtail, green (green foxtail, Setaria viridis); assay: Test A postemergence, green foxtail; conditions: approximately 10 d
Text: as §1

[5] = test system: galium (catchweed bedstraw, Galium aparine); assay: Test A postemergence, galium; conditions: approximately 10 d
Text: as §1

[6] = test system: kochia (Kochia scoparia); assay: Test A postemergence, kochia; conditions: approximately 10 d
Text: as §1

[7] = test system: pigweed (Amaranthus retroflexus); assay: Test A postemergence, pigweed; conditions: approximately 10 d
Text: as §1

[8] = test system: ragweed (common ragweed, Ambrosia elatior); assay: Test A postemergence, ragweed; conditions: approximately 10 d
Text: as §1

[9] = test system: ryegrass, Italian (Italian ryegrass, Lolium multiflorum); assay: Test A postemergence, Italian ryegrass; conditions: approximately 10 d
Text: as §1

[10] = test system: wheat (Triticum aestivum); assay: Test A postemergence, wheat; conditions: approximately 10 d
Text: as §1

[11] = test system: barnyardgrass (Echinochloa crus-galli); assay: Test A preemergence, barnyardgrass; conditions: approximately 10 d
Text: as §1

[12] = test system: foxtail, green (green foxtail, Setaria viridis); assay: Test A preemergence, green foxtail; conditions: approximately 10 d
Text: as §1

[13] = test system: kochia (Kochia scoparia); assay: Test A preemergence, kochia; conditions: approximately 10 d
Text: as §1

[14] = test system: pigweed (Amaranthus retroflexus); assay: Test A preemergence, pigweed; conditions: approximately 10 d
Text: as §1

[15] = test system: ragweed (common ragweed, Ambrosia elatior); assay: Test A preemergence, ragweed; conditions: approximately 10 d
Text: as §1

[16] = test system: ryegrass, Italian (Italian ryegrass, Lolium multiflorum); assay: Test A preemergence, Italian ryegrass; conditions: approximately 10 d
Text: as §1

[17] = test system: barnyardgrass (Echinochloa crus-galli); assay: Test B flooded paddy test, barnyardgrass; conditions: 250 g ai/ha, Flood (paddy water), 13 to 15 d
Protocol: (§2) Plant species in the flooded paddy test selected from rice (Oryza sativa), sedge, umbrella (small-flower umbrella sedge, Cyperus difformis), ducksalad (Heteranthera limosa), and barnyardgrass (Echinochloa crus-galli) were grown to the 2-leaf stage for testing. At time of treatment, test pots were flooded to 3 cm above the soil surface, treated by application of test compounds directly to the paddy water, and then maintained at that water depth for the duration of the test. Treated plants and controls were maintained in a greenhouse for 13 to 15 d, after which time all species were compared to controls and visually evaluated. Plant response ratings, summarized in Table B, are based on a scale of 0 to 100 where 0 is no effect and 100 is complete control. A dash (-) response means no test result.

[18] = test system: ducksalad (Heteranthera limosa); assay: Test B flooded paddy test, ducksalad; conditions: 250 g ai/ha, Flood (paddy water), 13 to 15 d
Protocol: as §2

[19] = test system: rice (Oryza sativa); assay: Test B flooded paddy test, rice; conditions: 250 g ai/ha, Flood (paddy water), 13 to 15 d
Protocol: as §2

[20] = test system: sedge, umbrella (small-flower umbrella sedge, Cyperus difformis); assay: Test B flooded paddy test, umbrella sedge; conditions: 250 g ai/ha, Flood (paddy water), 13 to 15 d
Protocol: as §2

CN1C[C@H](c2ccc(C(F)(F)F)cc2)[C@@H](C(=O)Nc2cccc(F)c2F)C1=NNC(=O)C(C)(C)C [Compound 1, 2-[(3R,4S)-3-[[(2,3-difluorophenyl)amino]carbonyl]-1-methyl-4-[4-(trifluoromethyl)phenyl]-2-pyrrolidinylidene]hydrazide 2,2-dimethylpropanoic Acid]
20: Plant response rating (0 to 100 scale, 0 is no effect, 100 is complete control) ([9]; 31 g ai/ha)
65: Plant response rating (scale of 0 to 100, 0 is no effect, 100 is complete control) [17]
50: Plant response rating (0 to 100 scale, 0 is no effect, 100 is complete control) ([2]; 125 g ai/ha) | Plant response rating (0 to 100 scale, 0 is no effect, 100 is complete control) ([12]; 31 g ai/ha) | Plant response rating (0 to 100 scale, 0 is no effect, 100 is complete control) ([14]; 31 g ai/ha)
60: Plant response rating (0 to 100 scale, 0 is no effect, 100 is complete control) ([9]; 125 g ai/ha) | Plant response rating (0 to 100 scale, 0 is no effect, 100 is complete control) ([13]; 125 g ai/ha)
90: Plant response rating (0 to 100 scale, 0 is no effect, 100 is complete control) ([14]; 125 g ai/ha)
100: Plant response rating (0 to 100 scale, 0 is no effect, 100 is complete control) ([11]; 125 g ai/ha) | Plant response rating (0 to 100 scale, 0 is no effect, 100 is complete control) ([12]; 125 g ai/ha) | Plant response rating (0 to 100 scale, 0 is no effect, 100 is complete control) ([15]; 125 g ai/ha)
10: Plant response rating (0 to 100 scale, 0 is no effect, 100 is complete control) ([2]; 31 g ai/ha) | Plant response rating (0 to 100 scale, 0 is no effect, 100 is complete control) ([5]; 125 g ai/ha)
30: Plant response rating (0 to 100 scale, 0 is no effect, 100 is complete control) ([10]; 125 g ai/ha) | Plant response rating (scale of 0 to 100, 0 is no effect, 100 is complete control) [18]
40: Plant response rating (0 to 100 scale, 0 is no effect, 100 is complete control) ([1]; 31 g ai/ha) | Plant response rating (0 to 100 scale, 0 is no effect, 100 is complete control) ([3]; 125 g ai/ha) | Plant response rating (0 to 100 scale, 0 is no effect, 100 is complete control) ([4]; 31 g ai/ha)
80: Plant response rating (0 to 100 scale, 0 is no effect, 100 is complete control) ([1]; 125 g ai/ha) | Plant response rating (0 to 100 scale, 0 is no effect, 100 is complete control) ([4]; 125 g ai/ha) | Plant response rating (0 to 100 scale, 0 is no effect, 100 is complete control) ([11]; 31 g ai/ha)
0: Plant response rating (0 to 100 scale, 0 is no effect, 100 is complete control) ([3]; 31 g ai/ha) | Plant response rating (0 to 100 scale, 0 is no effect, 100 is complete control) ([5]; 31 g ai/ha) | Plant response rating (0 to 100 scale, 0 is no effect, 100 is complete control) ([6]; 31 g ai/ha) | Plant response rating (0 to 100 scale, 0 is no effect, 100 is complete control) ([6]; 125 g ai/ha) | Plant response rating (0 to 100 scale, 0 is no effect, 100 is complete control) ([7]; 31 g ai/ha) | Plant response rating (0 to 100 scale, 0 is no effect, 100 is complete control) ([7]; 125 g ai/ha) | Plant response rating (0 to 100 scale, 0 is no effect, 100 is complete control) ([8]; 31 g ai/ha) | Plant response rating (0 to 100 scale, 0 is no effect, 100 is complete control) ([8]; 125 g ai/ha) | Plant response rating (0 to 100 scale, 0 is no effect, 100 is complete control) ([10]; 31 g ai/ha) | Plant response rating (0 to 100 scale, 0 is no effect, 100 is complete control) ([13]; 31 g ai/ha) | Plant response rating (0 to 100 scale, 0 is no effect, 100 is complete control) ([15]; 31 g ai/ha) | Plant response rating (0 to 100 scale, 0 is no effect, 100 is complete control) ([16]; 31 g ai/ha) | Plant response rating (0 to 100 scale, 0 is no effect, 100 is complete control) ([16]; 125 g ai/ha) | Plant response rating (scale of 0 to 100, 0 is no effect, 100 is complete control) [19] | Plant response rating (scale of 0 to 100, 0 is no effect, 100 is complete control) [20]

— US11357230B2, “Herbicidal amides” (FMC Corporation, priority 2017, dated 2022)
